According to a melting point compilation (Tetko et al.):

| melting point [°C] | Compound |
| --- | --- |
| 104 to 106 | COC1CCN(C(=O)Nc2cccc(C(C)=O)c2)CC1 |
| 149 to 151 | Nc1ccc(Cl)cc1C(=O)c1ccc[nH]1 |
| 227 to 229 | O=C(O)c1cc2ccc(F)cc2[nH]1 |
| 59 to 63 | Cc1cncc(N)c1 |
| 110 to 112 | Cc1ccc(S(=O)(=O)Nc2cccc(Cl)c2)cc1N |
| 325 to 327 | O=C1CN(c2ccc(O)cc2)C(=O)N1 |
| 169 to 171 | Cn1c(C2CC2)nc2c1CCNC2 |
| 81 to 83 | NCc1nnc2n1CCCC2C(F)(F)F (stereo not given) |
| 102 to 104 | Cc1cc(N)nc(N2CCOCC2)n1 |
| 97 to 99 | CCCc1c(C(=O)O)cnn1-c1cccc(F)c1 |
| 136 to 138 | COc1ccc2nc(Cl)ccc2c1S(=O)(=O)Cl |
| 164 to 166 | Cc1nc2cc(N)ccc2n1C |
| 52 to 54 | Nc1ccnc(Oc2ccccc2)c1 |
| 165 to 167 | Cc1c(C(=O)O)nnn1-c1ccccc1Cl |
| 104 to 106 | COc1ccccc1OCC(=O)Nc1cccc(N)c1 |
| 281 to 283 | CS(=O)(=O)Nc1nc2ccc(N)cc2s1 |
| 95 to 97 | CC(C)c1nc(C=O)c2ccccn12 |
| 96 to 98 | Nc1nonc1-c1ccccc1 |
| 142 to 144 | NS(=O)(=O)Cc1ccc(Cl)nc1 |
| 90 to 92 | COc1cccc(C2CC2C(=O)O)c1 (stereo not given) |
| 99 to 101 | O=S(=O)(c1ccc(N=C=S)cc1)N1CCOCC1 |
| 164 to 166 | CC1CCCCN1c1cc(C(=O)O)ccn1 (stereo not given) |

| melting point [°C] | Compound |
| --- | --- |
| 72 to 74 | CCOc1cc2nccc(Cl)c2cc1OCC |
| 20 to 22 | NCc1nnc2n1CCC2 |
| 94 to 96 | CC(C)(C(=O)O)c1ccc(Cl)c(Cl)c1 |
| 201 to 203 | Cc1c[nH]c(=O)n1-c1cccc([N+](=O)[O-])c1 |
| 302 to 304 | c1nc(N2CCCC2)c2nc[nH]c2n1 |
| 122 to 124 | Nc1onc(C2CCCC2)c1-c1ccc2c(c1)OCO2 |
| 284 to 286 | COc1ccc(-c2cc(C(=O)O)c3sc(N4CCCCC4)nc3n2)cc1OC |
| 139 to 141 | CCC1Oc2c(Cl)cccc2NC1=O (stereo not given) |
| 94 to 96 | NC(=O)CCOc1cccc(F)c1 |
| 228 to 230 | O=C1COc2ccc(C(=O)CCl)cc2N1 |
| 54 to 56 | CC(=O)OCc1ccc(Cl)cc1C#N |
| 181 to 183 | O=C(O)CCC(=O)N1CC(=O)Nc2ccccc21 |
| 158 to 160 | CC1=NN(c2ccc(Cl)c(Cl)c2)C(=O)C1 |
| 74 to 76 | Cc1cc(CC#N)c(C)n1-c1ccc(Cl)cc1 |
| 267 to 269 | Nc1ccc2[nH]c(CC3CCCCC3)nc2c1 |
| 157 to 161 | Cc1cccc(-c2nnc(S)o2)c1 |
| 123 to 125 | N#Cc1ccc(N2CCOCC2)nc1 |
| 175 to 177 | O=c1c2ccccc2nc(S)n1CCCN1CCOCC1 |
| 83 to 85 | ClCc1nn(-c2ccccc2)c2c1CCC2 |
| 182 to 184 | O=c1[nH]c(-c2ccccc2Cl)cs1 |
| 206 to 208 | Cc1ccc(-c2nnc(N)[nH]2)cc1 |
| 228 to 230 | O=C(O)c1ccc(-c2cccs2)cc1F |

| melting point [°C] | Compound |
| --- | --- |
| 230 to 232 | O=C1Nc2cc3c(cc2C1=O)OCCCO3 |
| 118 to 120 | C=CC(=O)NCc1ccc(F)cc1 |
| 236 to 238 | Nc1ccc(Cl)cc1-c1nc2ccccc2[nH]1 |
| 118 to 120 | COc1ccc(CC(=O)O)c(Cl)c1 |
| 112 to 114 | COc1cccc(-c2cc(N)n(-c3ccccc3)n2)c1 |
| 258 to 260 | Nc1nc(-c2ccccc2)cn1N |
| 87 to 89 | Nc1cccc(CN2CCSCC2)c1 |
| 243 to 245 | CC1(C2CCNCC2)NC(=O)NC1=O (stereo not given) |
| 109 to 111 | Nc1ccc(S(=O)(=O)C(F)(F)F)cc1N |
| 84 to 86 | COc1ccc2c(c1)CCCC2CC(=O)O (stereo not given) |
| 77 to 79 | Cc1cc(CO)c(C)n1-c1ccccc1 |
| 170 to 172 | CC1(c2ccccc2)NC(=O)N(CC(=O)O)C1=O (stereo not given) |
| 261 to 263 | O=C1CCc2cc(C(=O)O)ccc2N1 |
| 47 to 49 | CCOC(=O)Cc1cccc(C#N)c1 |
| 119 to 121 | CCOC(=O)c1sc(N)c(C(=O)c2ccccc2)c1C |
| 185 to 187 | COc1cccc(-c2nnc(N)o2)c1OC |
| 134 to 136 | C#CCNC(=O)Nc1ccccc1F |
| 101 to 103 | Cc1ccc2[nH]c(-c3ccc(Br)cc3)c(CCC(=O)O)c2c1 |
| 79 to 81 | Brc1cccc2cnoc12 |
| 145 to 147 | Cc1cc(C)c(-c2cc(N)[nH]n2)cc1C |
| 49 to 51 | O=Cc1ccn(-c2ccccc2)n1 |
| 211 to 213 | O=C(O)c1cc(C2CC2)nc2onc(-c3ccco3)c12 |

| melting point [°C] | Compound |
| --- | --- |
| 165 to 167 | O=C(O)C1CSC(c2cccc(Br)c2)N1 (stereo not given) |
| 159 to 161 | Nc1cccc(CN2C(=O)CNC2=O)c1 |
| 159 to 161 | COc1cc(C(=O)O)c([N+](=O)[O-])cc1OCC1CCCO1 (stereo not given) |
| 122 to 124 | Nc1ccc(F)cc1-c1nc(CCOc2ccccc2)no1 |
| 220 to 222 | Cc1cc(Cl)n2ncnc2n1 |
| 112 to 114 | CCCCOc1ccc(-c2cc(N)on2)cc1 |
| 96 to 98 | NCc1cccc(NC(=O)C2CC2)c1 |
| 89 to 91 | Nc1ccc(NCc2ccccn2)cc1 |
| 147 to 149 | Nn1cnc2ccccc21 |
| 259 to 261 | Nc1nncc(-c2ccc(Cl)s2)n1 |
| 60 to 62 | CCN(CC)Cc1ccc(O)c2ncccc12 |
| 98 to 100 | O=S(=O)(Cl)c1ccc2nc(Cl)sc2c1 |
| 59 to 61 | O=S(=O)(Cl)c1cnn(C2CCOCC2)c1 |
| 163 to 167 | O=C1CCS(=O)(=O)c2ccc(F)cc21 |
| 178 to 180 | COc1cc(Cl)ccc1C(=O)NN |
| 117 to 119 | Cc1c(N)cccc1S(C)(=O)=O |
| 119 to 121 | O=C1CCCc2cc(Br)ccc2N1 |
| 113 to 115 | O=Cc1c(Cl)c2ccccc2oc1=O |
| 162 to 164 | Nc1ccc(S(=O)(=O)Nc2ccc(F)cc2)cc1 |
| 129 to 131 | CC(=O)N1CCCC(C(=O)O)C1 (stereo not given) |

Continued, compound first:

| Compound | melting point [°C] |
| --- | --- |
| O=C1CCCN1CO | 79 to 81 |
| CC(CC(=O)c1cccc(Br)c1)C(=O)O (stereo not given) | 95 to 97 |
| CC(C)C1(C(=O)O)CC1 | 54 to 56 |
| Cc1ccc(C(=O)c2cccc(S(C)(=O)=O)c2)c(C)c1 | 83 to 85 |
| CCOc1ncccc1C(=O)O | 90 to 92 |
| O=C(NS(=O)(=O)c1cccs1)c1ccccc1 | 92 to 94 |
| NNC(=O)CNc1cccc(C(F)(F)F)c1 | 80 to 82 |
| N#Cc1ccc(NCC(=O)O)nc1 | 167 to 169 |
| O=[N+]([O-])c1n[nH]cc1S(=O)(=O)Cl | 154 to 156 |
| CS(=O)(=O)c1cc(S(=O)(=O)Cl)c(Cl)s1 | 124 to 126 |
| CC(CC(=O)O)NC(=O)OCc1ccccc1 (stereo not given) | 129 to 131 |
| O=C(CCl)c1ccc(F)c(F)c1 | 37 to 39 |
| COC(=O)c1cc(F)c(F)cc1N | 79 to 81 |
| Cc1ccc(C(=O)O)c(Cl)c1C | 153 to 155 |
| CCNc1cc(C(=O)O)ccn1 | 291 to 293 |
| Cc1c(NC(=O)CCCl)c(=O)n(-c2ccccc2)n1C | 207 to 209 |
| CC1(C)CCc2c(sc(N)c2C(N)=O)C1 | 144 to 146 |
| Cn1cc(C#N)c(=O)[nH]c1=O | 239 to 241 |
| CNS(=O)(=O)c1cccc(C(=O)O)c1 | 209 to 211 |
| NS(=O)(=O)c1ccc(CNCC(F)(F)F)cc1 | 129 to 131 |

| Compound | melting point [°C] |
| --- | --- |
| CS(=O)(=O)Nc1ccc(C(=O)O)c(O)c1 | 227 to 229 |
| Cc1cccc(COc2cccc(CC(=O)O)c2)c1 | 91 to 93 |
| CC1Oc2ccccc2N(CC(=O)O)C1=O (stereo not given) | 146 to 148 |
| CCOC(=O)Nc1ccc(NC(C)c2ccccn2)cc1 (stereo not given) | 145 to 147 |
| CCC1(C)NC(=O)N(CCCN)C1=O (stereo not given) | 63 to 65 |
| O=C(O)c1sccc1-c1ccccc1 | 206 to 208 |
| CC(C)(C)c1ccc(S(=O)(=O)Cl)s1 | 47 to 49 |
| Cc1csc(=O)n1CC(=O)O | 193 to 195 |
| NS(=O)(=O)NCc1cccnc1 | 129 to 131 |
| CC(C)NC(=O)N1CCC(C(=O)O)CC1 | 137 to 139 |
| Cc1csc(C(O)(CC(=O)O)C(F)(F)F)n1 (stereo not given) | 109 to 111 |
| CC(NC(=O)c1cccc(Cl)c1Cl)C(=O)O (stereo not given) | 152 to 154 |
| Cc1n[nH]c(C)n1 | 127 to 131 |
| COc1ccccc1NCCC(N)=O | 94 to 96 |
| O=C(O)c1cnoc1 | 99 to 101 |
| O=[N+]([O-])c1ccc(Cl)c(CCl)c1 | 61 to 63 |
| CC(=O)c1cc(C#N)c(SCC(=O)O)nc1C | 187 to 189 |
| COc1cc(N)c([N+](=O)[O-])cc1OC | 174 to 176 |
| NC(=O)C1=CCCC1 | 166 to 168 |
| Cc1ccc(Oc2ccc3[nH]cccc-3c2=N)c(Br)c1 | 259 to 261 |

| Compound | melting point [°C] |
| --- | --- |
| COC(=O)C=CN(C)C | 43 to 45 |
| O=C(O)CCCS(=O)c1ccc(Br)cc1 (stereo not given) | 121 to 123 |
| O=C(O)CCN1C(=O)CCC1=O | 131 to 133 |
| CC(C)(C)c1ccccc1OCC(=O)O | 144 to 148 |
| CC(O)C1NC(=O)NC1=O (stereo not given) | 179 to 181 |
| O=C(O)c1cc(S(=O)(=O)Cl)c(F)c(Cl)c1F | 191 to 193 |
| COc1ccc(Cl)c(N=C=O)c1 | 38 to 40 |
| CC(C)(C)n1cc(C#N)cc1N | 105 to 107 |
| O=C(O)CNC(c1ccccc1)C(F)(F)F (stereo not given) | 191 to 193 |
| O=[N+]([O-])c1cc(S(=O)(=O)Cl)ccc1Br | 53 to 55 |
| Cc1oc(C)c(C(=O)O)c1C | 131 to 133 |
| COc1ccc(C(NC(=O)CCl)c2ccc(OC)cc2)cc1 | 118 to 120 |
| Cn1cnc([N+](=O)[O-])c1Br | 177 to 179 |
| COC(=O)c1sc2ncc(C=O)cc2c1C | 199 to 201 |
| Sc1nnc2c(Cl)cc(Cl)cn12 | 257 to 259 |
| O=C(O)c1ncn(-c2ccccc2)n1 | 179 to 181 |
| CCOC(=O)C1CCCN1S(N)(=O)=O (stereo not given) | 123 to 125 |
| CC(C)(C)c1cc(NC(=O)CCl)on1 | 95 to 97 |
| CNC(C)(C#N)Cn1cc(Br)cn1 (stereo not given) | 33 to 35 |
